Assay: in vitro
Conditions: human, hela cells, % viability

SMILES | viability at 28.5 h, 10 µM
CCn1c(SCC(=O)Nc2cc(Cl)ccc2O)nnc1-c1ccccc1 [CBK269680] | 87.4%
CN(C)CCNC(=O)Cc1csc(-c2ccc(Cl)cc2)n1 [CBK107299] | 96.2%
COc1ccc2c(c1)C1(CC(=O)N(Cc3ccccc3)C1=O)C(=O)N2CC(=O)O (stereo not drawn) [CBK076108] | 92.5%
Cc1csc2c(C3CCN(C(=O)c4ccnn4C)CC3)nc(C)n12 [CBK285249] | 94.3%
COc1cccc(CN2CCC3(CCCNC3=O)CC2)c1 [CBK284824] | 96.6%
O=C(O)CCSCC(=O)c1ccc(NS(=O)(=O)c2ccccc2)cc1 [CBK300504] | 97.5%
Cc1csc2ncc(C(=O)NCc3ccc4c(c3)OCO4)c(=O)n12 [CBK287292] | 109%
NC(=S)Nn1c(CCC(=O)O)ccc1-c1cccs1 [CBK265952] | 92.3%
c1cncc(-c2nnc([C@H]3CCNC3)o2)c1 [CBK289396] | 103%
Cc1cccc(C(C)(C)C)c1NC(=O)N1CCC(Cc2ccccc2)CC1 [CBK043962] | 112%
Fc1ccccc1CN(CCCn1ccnc1)CC1CCOC1 (stereo not drawn) [CBK283031] | 104%
CCc1nc(N)nc(N2CCCC3(CN(C)C(=O)O3)C2)c1C (stereo not drawn) [CBK306914] | 86.9%
N#Cc1ccc(C(=O)N2Cc3nc[nH]c3C[C@H]2c2nc(-c3ccncc3)no2)cc1 [CBK288963] | 117%
Nc1ncc(-c2ccc(OC(F)(F)F)cc2)c2cccnc12 [CBK067594] | 98.7%
O=C(CN1CCC(c2ccccc2F)CC1)Nc1nccs1 [CBK283579] | 106%
NS(=O)(=O)c1ccc(N2C(=O)C(O)=C(C(=O)c3ccc(Cl)cc3)C2c2ccc([N+](=O)[O-])cc2)cc1 (stereo not drawn) [CBK263758] | 97.2%
O=C(NCCNCc1ccccc1)c1ccccc1 [CBK012505] | 119%
O=C(Nc1ccc(Sc2ccc([N+](=O)[O-])cc2)cc1)c1ccc2c(c1)C(=O)N(c1ccccc1-c1ccccc1)C2=O [CBK261340] | 77.1%
O=C(NCCOc1ccccc1)N1CCN(c2ccc(F)cc2)CC1 [CBK156416] | 92.7%
c1ccc2c(c1)OCC(COc1nccc(N3CCCNCC3)n1)O2 (stereo not drawn) [CBK085471] | 89.8%
Cc1c(C(=O)N2CCCC(c3nc(C)n4ccsc34)C2)cnn1C (stereo not drawn) [CBK284593] | 102%

SMILES | viability at 28.5 h, 10 µM
C=C(C)Cn1c(SCCC(=O)OC)nc2sc3c(c2c1=O)CC(C)(C)OC3 [CBK026634] | 59.9%
COc1cc(OC)c(NS(=O)(=O)c2ccc(C(=O)O)cc2)cc1Cl [CBK296620] | 97.5%
Cc1nn(C)c(C)c1C(=O)Nc1sc2c(c1C#N)CCC(C)C2 (stereo not drawn) [CBK304645] | 54.9%
CC(=O)N[C@H]1CO[C@H]2[C@@H]1OC[C@@H]2n1nnnc1Oc1ccc(-n2ccnc2)cc1 [CBK289487] | 104%
O=C(NCc1ccc(Cl)cc1)N(Cc1cccnc1)Cc1ccc2c(c1)OCO2 [CBK159449] | 97%
COC(=O)c1cc(-c2ccccc2)sc1NC(=O)c1cnccn1 [CBK268175] | 93.5%
CC1(C)[C@H](Cc2cc(COc3ccccc3)on2)C[C@@H]1NS(C)(=O)=O [CBK289703] | 89.5%
CN1CCN(C(=O)c2c(NS(=O)(=O)c3cc(F)c(Br)cc3F)sc3c2CCCC3)CC1 [CBK050419] | 90.5%
CC1CCCCN1C(=O)CCc1nc2sc3c(c2c(=O)[nH]1)CCCC3 (stereo not drawn) [CBK306086] | 112%
Cc1c(NC(=O)CSc2nnc(-c3cccc([N+](=O)[O-])c3)n2C)c(=O)n(-c2ccccc2)n1C [CBK266757] | 95.4%
CC(C)(C)c1cc(C(C)(C)C)cc(S(=O)(=O)CCc2ccccn2)c1 [CBK261073] | 88.4%
COC(=O)c1ccccc1NC(=O)CSc1nnc(-c2ccncc2)[nH]1 [CBK266324] | 96.4%
CN(C)C(=O)CN1C(=O)CC2(C1=O)C(=O)N(CC(=O)O)c1ccc(F)cc12 (stereo not drawn) [CBK076119] | 101%
CCN(CC)CCN1C(=O)c2oc3cc(C)c(C)cc3c(=O)c2C1c1cc(Br)c(O)c(OC)c1 (stereo not drawn) [CBK266846] | 105%
COc1ccc(/C=C(\C)C(=O)Nc2cccc(N3CCNCC3)c2)cc1OC [CBK034115T] | 90.1%
CCCCC1CCC(C(=O)Nc2cc(C)c3c(=O)oc4ccccc4c3n2)CC1 (stereo not drawn) [CBK291136] | 101%
COc1cc(CCN2CCC(c3nc(-c4ccccc4)c4ccccn34)CC2)cc(OC)c1OC [CBK035278] | 91%
CC[C@H]1CN(C(=O)Nc2ccccc2)CC[C@H]1CC(=O)N(C)CC#N [CBK288777] | 101%
CCc1nc2c(OCc3ccccc3OC)cccn2c1N(C)C(=O)C(C)C [CBK147763] | 97%
CS(=O)(=O)NC1CCCCC1 [CBK012234] | 89.3%
CCOc1ccc(CN(Cc2cc(=O)n3nc(-c4ccccc4)sc3n2)CC(C)C)cc1 [CBK294412] | 103%

SMILES | viability at 28.5 h, 10 µM
Cc1ccccc1-c1ccc(C(=O)Nc2ccc3c(c2)OCO3)c(N2CCN(C(=O)c3ccco3)CC2)n1 [CBK076196] | 101%
Cc1ccc(-c2nccnc2OCc2ccco2)cc1C [CBK106863] | 90.2%
CC(C)c1nsc(NS(=O)(=O)c2cccc(C(F)(F)F)c2)n1 [CBK038881] | 98.3%
O=C(Nc1ccc(Cl)cc1)Nc1cccc(C(=O)O)c1 [CBK269404] | 98.7%
Cc1cc(C[C@@H]2CCC[C@H]2NCc2nc3ccccc3[nH]2)on1 [CBK284935] | 87.3%
COc1cc(/C=N/NC(=O)c2cccnc2)cc([N+](=O)[O-])c1O [CBK262233] | 86.4%
CC(=O)Nc1ccc(NC(=O)[C@H]2CCCC[C@H]2C(=O)O)cc1 [CBK287073] | 99.6%
Cc1cc(Cl)cc(Br)c1OCCNCCN1CCOCC1 [CBK268615G] | 111%
COc1ccc(-c2c(-c3ccc(O)cc3O)n[nH]c2C)cc1OC [CBK265552] | 81.7%
COc1cc2cc(CN(Cc3cccnc3)C(=O)Nc3ccc(F)cc3)c(=O)[nH]c2cc1OC [CBK108193] | 93.3%
Cc1cc(C)cc(N(CC(=O)O)S(C)(=O)=O)c1 [CBK263775] | 111%
COc1ccc(C(=O)Nc2ccc3c(c2)C(=O)N(CCC(=O)O)C3=O)cc1 [CBK265921] | 93.1%
O=C(NC[C@H]1O[C@@H](CC(=O)N2CCCC2)[C@H](O)[C@@H]1O)c1ccc(F)c(Cl)c1 [CBK288913] | 90.9%
COc1cc(C(=O)N2CCCC3(CC(=O)c4ccc(C)cc4O3)C2)cc(OC)c1C (stereo not drawn) [CBK168239] | 87.2%
CCc1ccc2c(c1)C(=O)CC1(CCN(C(=O)c3cc(OC)c(C)c(OC)c3)CC1)O2 [CBK168098] | 112%
Cn1cc(C(=O)N2CCc3nc(-c4cccc(F)c4)sc3C2)cn1 [CBK281910] | 94.5%
Cc1ccccc1OC(C)C(=O)NCCCc1ccccc1 (stereo not drawn) [CBK268571] | 88.3%
CS(=O)(=O)Nc1cccc(-c2nnn[nH]2)c1 [CBK062150] | 90.4%
Cc1cccc2cc(/C=C(\C#N)c3nc(-c4cc5ccccc5oc4=O)cs3)c(Cl)nc12 [CBK261642] | 85.4%
COc1ccc(CNC(=O)c2nc(-c3ccccn3)no2)cc1 [CBK287877] | 90.3%
CN(Cc1nc2c(s1)CCCC2)C(=O)c1ccc2[nH]cnc2c1 [CBK304138] | 88.4%

SMILES | viability at 28.5 h, 10 µM
CC(C)c1ccc(/C=C/C(=O)NCc2ccc(C#N)cc2)cc1 [CBK149642] | 91%
Cn1nc(CC(=O)Nc2ccc(OC(=O)c3ccccc3)cc2)c2ccccc2c1=O [CBK264057] | 96%
CSc1nc(N)c2nccnc2n1 [CBK025779] | 104%
O=C(COc1ccc2c(c1)OCO2)N1CCN(Cc2ccccc2)CC1 [CBK269977] | 84.8%
CSc1ccccc1C(=O)Nc1nccs1 [CBK288225] | 88.7%
COc1ccc(-c2nc3ccccn3c2CN2CCC(C(=O)O)CC2)cc1 [CBK287052] | 88.4%
CS(=O)(=O)N[C@H]1C[C@H]2C(=O)Nc3ccc(-c4ccc(F)cc4F)cc3C(=O)N2C1 [CBK289368] | 85.3%
CCCN(CCC#N)S(=O)(=O)c1ccc(C(C)C)cc1 [CBK043453] | 94.4%
O=C1c2ccccc2C(=O)N1CCc1nc2ccccc2c(=O)n1-c1nc2ccccc2s1 [CBK266358] | 122%
COc1ccc(-c2nc(NS(C)(=O)=O)cc3cccnc23)cc1C [CBK085677] | 85.5%
CCCCC(c1cccnc1)N(C)C(=O)c1cc(C)c(CC)n(C)c1=O (stereo not drawn) [CBK306999] | 88.5%
OC(Cn1ccc2ccccc21)Cn1c(Cc2ccccc2)nc2ccccc21 (stereo not drawn) [CBK267954] | 97.7%
Cc1ccc(NC(=O)CN2CCN(Cc3ccc4c(c3)OCO4)CC2)cc1 [CBK074403] | 102%
CC(=O)c1cn(CCC(=O)NC2CCCN(C)C2)c2ccccc12 (stereo not drawn) [CBK282503] | 81.3%
Cn1ncc(C#N)c1NC(=O)C1CC(c2ccc(Cl)c(Cl)c2)=NO1 (stereo not drawn) [CBK267478] | 93.7%
O=S(=O)(c1ccc(Cl)cc1)N1CCN(c2ccccc2)CC1 [CBK067987] | 100%
COC(=O)[C@@H]1CN(C(=O)c2cccs2)C[C@H]1c1ccc(OC)cc1 [CBK283725] | 87.1%
CC1(C)CC(NS(=O)(=O)c2ccc(Br)cc2)CC(C)(C)N1 [CBK266805] | 97.7%
C=Cn1cc(CN2CCCC(c3cc4cccnc4[nH]3)C2)c(C)n1 (stereo not drawn) [CBK284944] | 115%
O=C1NCCCC12CCN(Cc1cccc(F)c1F)CC2 [CBK284877] | 91.8%
Nc1nccc2c1ncn2[C@H]1C[C@@H](O)[C@@H](CO)O1 [CBK201157] | 97.1%

Same assay, conditions: human, hela cells, % viability, bulk resorufin, single well

SMILES | viability at 28.5 h, 10 µM
O=C(O)c1nn(Cc2ccc(Cl)c(Cl)c2)c2ccccc12 [CBK088455] | 91.2%
O=C(O)C(O)(c1ccccc1)c1cccs1 (stereo not drawn) [CBK022808] | 108%
O=C1NC(=O)N(Cc2ccco2)C(=O)/C1=C\c1ccc(-c2ccc(Cl)c(C(=O)O)c2)o1 [CBK263937] | 97.9%
